The test system of one series is DHFR. To be noted: Rosowsky et al; cited from earlier work.
The test system of series [1] is FPGS (folylpolyglutamate synthetase). Particulars: Rosowsky et al; cited from earlier work.
The test system is the same in series [2]. The series is described as follows: FPGS inhibition / chain termination by 4-fluoroglutamic acid. Format: biochemical. From the text:
The present invention for the first time presents a fluorinated compound, e.g. D,L-threo-4-fluoroglutamic acid which inhibits FPGS. It is proposed that by replacing the glutamate moiety of MTX with 4-fluoroglutamate, as in the present invention, the new MTX analog becomes capable of inhibiting DHFR and incapable of acting as a substrate for FPGS.

For series [3] the test system is unchanged. To be noted: alternate substrate; McGuire and Coward, J. Biol. Chem. 260, 6747 (1985); cited from earlier work.
The subject of series [4] is dihydrofolate reductase (DHFR). The series is described as follows: DHFR inhibition. It counts as biochemical. Particulars: in vitro, relative to MTX. The source says: Hopefully, the potential for this new compound as a treatment for leukemia will be exploited further.
For the next series, the system named is rat liver FPGS. In words: FPGS substrate activity, in vitro, rat liver FPGS. It counts as biochemical.
The subject of series [5] is folylpolyglutamate synthetase. In words: Polyglutamylation by FPGS: incubation with FPGS, ATP and glutamic acid (Tables 2 and 3). It counts as biochemical. To be noted: Table 2 footnotes, ATP, glutamic acid.
The test system of another series is cultured hepatic cells. In words: Toxicity in long term pulse administration experiments, cultured hepatic cells. Format: cell-based. From the text: The major difference is that the cells given MTX contain large amounts (60%-90%) of MTX polyglutamate derivatives which efflux only very slowly, and thus are trapped in the cell. In contrast, cells given MFTX contain less than 5% of the analgous FMTX polyglutamates.

The next series relates to hepatic cells. It counts as cell-based.
Series [6] concerns biosynthesis of thymidyate. In words: Thymidylate biosynthesis (DNA synthesis) in pulse administration experiments. It counts as cell-based.
A further series deals with leukemia. To be noted: Farber et al, 1948; cited from earlier work.

Entries after “also recorded” stand apart in the source; their conditions may differ. Where two headings read alike, the source gives them in different places.

With `CN(Cc1cnc2nc(N)nc(N)c2n1)c1ccc(C(=O)NC(CCS(=O)(=O)O)C(=O)O)cc1` (racemic), the “affinity for DHFR” value in the series with DHFR is recorded as “tightly bind DHFR”. Further, in [1], the “inhibition of FPGS” value was “appears to weakly inhibit FPGS”.
As to `NC(CC(F)C(=O)O)C(=O)O` [D,L-threo-4-fluoroglutamic acid], the “inhibition of FPGS” value in [2] is on record as “inhibits FPGS”. Further, in series [3], the “chain termination of the FPGS reaction” value was “chain termination of the FPGS reaction”.
As for `CN(Cc1cnc2nc(N)nc(N)c2n1)c1ccc(C(=O)NC(CC(F)C(=O)O)C(=O)O)cc1` (stereo not drawn) [FMTX, 4-amino-10-methyl-pteroyl-4-fluoroglutamic acid], the “inhibitory activity against DHFR” value in [4] was “retain the potent inhibitory activity of MTX against DHFR; also recorded: comparable to MTX”. Further, the “substrate for FPGS” value with rat liver FPGS is given as “not a substrate”. For the same molecule, in [5], the polyglutamylation entry was “resists”. Further, in the series with cultured hepatic cells (long term pulse administration, cultured hepatic cells, relative to MTX), the toxicity levels result was “several thousand times lower than MTX”. For the same molecule, the toxicity to cells entry in the series on cultured hepatic cells (preliminary biochemistry, relative to MTX) is recorded as “without being nearly as toxic to cells”. Besides, the cytotoxicity result in the series with cultured hepatic cells (pulse conditions) is on record as “marked decrease in cytotoxicity”. For the same molecule, in the series on hepatic cells, the “efflux (transport out) from hepatic cells, rate” value was “essentially identical to unmetabolized MTX”; the “polyglutamate derivatives contained in cells” value is given as “less than 5%”; the “uptake by hepatic cells (rate and extent)” value was “nearly identical in terms of rate and extent as unmetabolized MTX”. Moreover, the “biosynthesis of thymidyate, and therefore DNA synthesis” value in [6] is reported as “only very weakly affected”.
As for `Nc1nc2ncc(CNc3ccc(C(=O)N[C@@H](CCC(=O)O)C(=O)O)cc3)nc2c(=O)[nH]1` [Folic Acid], in series [5], the polyglutamylation result is recorded as “undergoes polyglutamylation”.
In the case of `CN(Cc1cnc2nc(N)nc(N)c2n1)c1ccc(C(=O)N[C@@H](CCC(=O)O)C(=O)O)cc1` [Methotrexate], the polyglutamylation result in series [5] is “undergoes”. Also, the “polyglutamate derivatives contained in cells” value in the series with hepatic cells was 60-90%. Moreover, the remission in leukemia entry in the series on leukemia is recorded as “temporary remission in leukemia”.

The record behind these values is patent US4628090A, “Fluorine-containing antifolates incapable of polyglutanayte formation related compounds” (Rensselaer Polytechnic Institute, priority 1985, dated 1986).
